From patent publication US20190167711A1, “METHODS FOR DIAGNOSIS AND TREATMENT OF ACUTE LYMPHOBLASTIC LEUKEMIA” (MOR RESEARCH APPLICATIONS LTD., priority 2014, published 2019) come the findings set out here.

One data set concerns Nalm-6 cells. The data set can be described thus: Tumor growth of transfected Nalm-6 cells injected s.c. into NOD/SCID mice. The format is in vivo. The text has this: As described herein, decreased expression of miR-451 in comparison to a control level can serve as a prognostic factor for ALL relapse risk, as low expression of miR-451 at first diagnosis predicts worse outcome. […] Scrambled miRNA-transfected cells served as negative control (Nalm-6/miR-NC). Quantitative reverse transcription PCR (RT-qPCR) was used to confirm miR-451 expression in the transfected cells.
To further study the putative tumor-suppressive function of hsa-miR-451 in vivo, 10^7 viable Nalm-6 cells either untransfected, transfected in vitro with miR-451 mimic, or transfected with scrambled miR (control), were injected sub-cutaneously (s.c.) into the right flanks of 6-week-old female NOD/SCID mice. […] On day 26, the median tumor volume in the scrambled control mice and the miR-451 mimic mice were 204.69 mm^3 (SE=63.96) and 23.32 mm^3 (SE=13.12), respectively (p=0.019). At the end of the experiment, mice were sacrificed, and the tumors were weighted. The median tumor weight in the scrambled control mice and the miR-451 mimic mice were 0.0966 gr (SE=0.040) and 0.0159 gr (SE=0.0009), respectively (p=0.046) (FIG. 4C).

The next data set concerns NAMPT 3′-UTR. Nature of the data set: Luciferase reporter assay with NAMPT 3′-UTR. The conditions noted are these: after transfection. The format is cell-based. The text has this: To perform the reporter assay, the regulatory region of NAMPT is cloned […] of the Firefly luciferase gene in an expression vector, and the resulting recombinant vector, e.g., pLightSwitch 3′UTR, is transfected into cells along with an expression vector comprising the Renilla gene serving as reference. In accordance with some embodiments described herein, a target reporter vector containing the full-length wild type NAMPT 3′ untranslated region (3′-UTR) (pLightSwithch NAMPT 3′UTR) purchased from GeneCopoeia™ (Rockville, Md., USA) was co-transfected into NALM-6 cells along with Renilla luciferase vector as internal vector control. The NAMPT 3′-UTR contains miRNA response elements (MREs), to one of which miRNA-451 specifically binds. Twenty-four hours before transfection, NALM-6 cells were plated in 6 wells until 70% confluent. Two hundred (200) pmol miR-451 mimic, 200 pmol scrambled miR (both purchased from IDT®-Syntezza, Jerusalem, Israel) or 2 μg antagomiR-451 plasmid (GeneCopoeia™, Rockville, Md., USA) were transiently transfected into NALM-6 cells together with 2 μg pLightSwitch NAMPT 3′UTR and Renilla luciferase vector. […] Briefly, cells were collected, lysed to release all proteins (including the luciferase), luciferin was added along with all the necessary cofactors, and the enzymatic activity was quantitatively measured using a luminometer. […]
For orientation: A reporter such as luciferase makes a cellular process visible.

The subject of a further data set is CXCL16. The data set can be described thus: Western blot of CXCL16 in transfected NALM-6 cells. The format is cell-based. The conditions noted are these: NALM-6 transient. The text has this:
Protein was extracted from NALM-6 cell line using Qproteome™ lysis buffer (Qiagen, Hilden, Germany). The membrane was then probed with one or more of the following antibodies: anti-disintegrin and metalloproteinase domain-containing protein 10 (ADAM10) (1:1000) (Abcam; Cambridge, UK) (see Example 9); anti-chemokine C-X-C motif 16 (CXCL16) (1:1000); anti-NAMPT (1:1000); and anti-GAPDH (1:5000) (Santa Crus Biotechnology, Santa Crus, Calif., USA) (see Examples 5 and 9). The secondary antibodies were goat anti-mouse and goat anti-rabbit (1:10,000) (Sigma®, Saint Louis, Mo., USA), for each antigen according to the manufacturer's instructions. […]
Intensity of the protein band was measured using an in-house program. […]
Possible miR-451 targets were evaluated using several open access software programs (e.g., Targetscan, PicTar, miRanda, miRDB). […] In the first screening, the suppression of ADAM10, CXCL16 and NAMPT protein level was analyzed in NALM-6 cells transiently expressing miR-451 mimic (SEQ ID NO: 2) and in cells transiently expressing scrambled-miR (universal sequence; negative control) by Western blot as described in Materials and Methods. […]
(In general: Immunoblotting shows a protein as a band on a membrane.)

For the substance “miR-451 mimic: a dsmiR-451 designed to copy or mimic the functionality of mature endogenous miR-451 upon transfection (AAACCGUUACCAUUACUGAGUU; double-stranded mimic, further chemistry not given here; listed as Homo sapiens)”, the “tumor growth vs scrambled miR control cells” value in the data set on Nalm-6 cells (after 20 days) was “significantly decreased tumor growth”. The median tumor volume in the data set on Nalm-6 cells (day 26, 10^7 transfected Nalm-6 cells s.c., female NOD/SCID mice) is recorded as 23.32 mm^3. Moreover, in the data set on Nalm-6 cells (end of the experiment), the median tumor weight is 0.0159 gr. Besides, the “relative luciferase activity of NAMPT 3′-UTR reporter decreased by” value with NAMPT 3′-UTR is reported as 80%. Moreover, the “CXCL16 protein level compared to scrambled-miR” value in the data set on CXCL16 is recorded as “only NAMPT protein expression levels were reduced”.
